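All cell lines were grown in 96-well plates and treated with compound for 48 hours. TGI: total growth inhibition.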
Experiments:
Assay in all cases: NCI tumour cell line growth inhibition, 48 h
NCI-H522 lung = system: NCI-H522 lung
HOP-62 NSCLC = system: HOP-62 NSCLC
LOX IMVI melanoma = system: LOX IMVI melanoma
A549 NSCLC = system: A549 NSCLC
UACC-257 melanoma = system: UACC-257 melanoma
NCI/ADR-RES ovarian = system: NCI/ADR-RES ovarian
PC-3 prostate = system: PC-3 prostate
NCI-H226 lung = system: NCI-H226 lung
U251 CNS = system: U251 CNS
NCI-H460 lung = system: NCI-H460 lung

CN(C)c1ccc(/C=C(\NC(=O)c2ccccc2)C(=O)Nc2cccc(C(=O)NCCCO)c2)cc1
TGI (NCI-H522 lung): > 100 µM
TGI (HOP-62 NSCLC): > 100 µM
TGI (LOX IMVI melanoma): > 100 µM
TGI (A549 NSCLC): > 100 µM
TGI (UACC-257 melanoma): > 100 µM
TGI (NCI/ADR-RES ovarian): > 100 µM
TGI (PC-3 prostate): > 100 µM
TGI (NCI-H226 lung): > 100 µM
TGI (U251 CNS): > 100 µM
TGI (NCI-H460 lung): > 100 µM

CCOc1cccc(-c2cc(=O)c3cc4c(cc3[nH]2)OCO4)c1
TGI (NCI-H522 lung): 0.684 µM
TGI (HOP-62 NSCLC): > 100 µM
TGI (LOX IMVI melanoma): > 100 µM
TGI (A549 NSCLC): 28.9 µM
TGI (UACC-257 melanoma): > 100 µM
TGI (NCI/ADR-RES ovarian): 0.294 µM
TGI (PC-3 prostate): > 100 µM
TGI (NCI-H226 lung): 15.1 µM
TGI (U251 CNS): 3.44 µM
TGI (NCI-H460 lung): > 61.8 µM

CCCCCCCCCCCCC(Br)C(C)=O (stereo not drawn)
TGI (NCI-H522 lung): > 100 µM
TGI (HOP-62 NSCLC): > 100 µM
TGI (LOX IMVI melanoma): > 100 µM
TGI (A549 NSCLC): > 100 µM
TGI (UACC-257 melanoma): > 100 µM
TGI (NCI-H226 lung): > 100 µM
TGI (U251 CNS): > 100 µM
TGI (NCI-H460 lung): > 100 µM

COc1cc(CNc2cnc3ccc(N)cc3n2)cc(OC)c1OC
TGI (NCI-H522 lung): > 100 µM
TGI (HOP-62 NSCLC): > 100 µM
TGI (LOX IMVI melanoma): > 100 µM
TGI (A549 NSCLC): > 100 µM
TGI (UACC-257 melanoma): > 100 µM
TGI (NCI-H226 lung): > 100 µM
TGI (U251 CNS): > 100 µM
TGI (NCI-H460 lung): > 100 µM

Cc1ccc(-c2nnc3s/c(=C\c4ccc(N(C)C)cc4)c(=O)n23)cc1
TGI (NCI-H522 lung): > 100 µM
TGI (HOP-62 NSCLC): > 100 µM
TGI (LOX IMVI melanoma): > 100 µM
TGI (A549 NSCLC): > 100 µM
TGI (UACC-257 melanoma): 77.5 µM
TGI (NCI-H226 lung): > 100 µM
TGI (U251 CNS): > 100 µM
TGI (NCI-H460 lung): > 100 µM

O=C(O)CCN(CCCN(CCC(=O)O)CCC(=O)O)CCC(=O)O
TGI (NCI-H522 lung): > 100 µM
TGI (HOP-62 NSCLC): > 100 µM
TGI (LOX IMVI melanoma): > 100 µM
TGI (A549 NSCLC): > 100 µM
TGI (U251 CNS): > 100 µM
TGI (NCI-H460 lung): > 100 µM

CN(C)C(=NC#N)N(Cc1ccccc1)Cc1ccccc1
TGI (NCI-H522 lung): 81.5 µM
TGI (HOP-62 NSCLC): > 100 µM
TGI (LOX IMVI melanoma): > 100 µM
TGI (A549 NSCLC): > 100 µM
TGI (UACC-257 melanoma): > 100 µM
TGI (NCI-H226 lung): > 100 µM
TGI (U251 CNS): > 100 µM
TGI (NCI-H460 lung): 34 µM

O=c1[nH]c2c(c(=O)[nH]1)C(c1ccc([N+](=O)[O-])cc1)c1c([nH]c(=O)[nH]c1=O)O2
TGI (NCI-H522 lung): 82.9 µM
TGI (HOP-62 NSCLC): > 100 µM
TGI (A549 NSCLC): > 100 µM
TGI (UACC-257 melanoma): > 100 µM
TGI (PC-3 prostate): > 100 µM
TGI (NCI-H226 lung): > 100 µM
TGI (U251 CNS): > 100 µM
TGI (NCI-H460 lung): > 100 µM

CC1=CC(=O)N(n2c(-c3ccccc3)n[nH]c2=O)C1=O
TGI (NCI-H522 lung): > 100 µM
TGI (HOP-62 NSCLC): > 100 µM
TGI (LOX IMVI melanoma): > 100 µM
TGI (A549 NSCLC): > 100 µM
TGI (UACC-257 melanoma): > 100 µM
TGI (NCI/ADR-RES ovarian): > 100 µM
TGI (PC-3 prostate): > 100 µM
TGI (NCI-H226 lung): > 100 µM
TGI (U251 CNS): > 100 µM
TGI (NCI-H460 lung): > 100 µM

NC(=O)CCC(NC(=O)c1c2ccccc2nc2ccccc12)C(=O)O (stereo not drawn)
TGI (NCI-H522 lung): > 100 µM
TGI (HOP-62 NSCLC): > 100 µM
TGI (LOX IMVI melanoma): > 100 µM
TGI (A549 NSCLC): > 100 µM
TGI (UACC-257 melanoma): > 100 µM
TGI (NCI/ADR-RES ovarian): > 100 µM
TGI (PC-3 prostate): > 100 µM
TGI (NCI-H226 lung): > 100 µM
TGI (U251 CNS): > 100 µM
TGI (NCI-H460 lung): > 100 µM

CC(=O)NNc1nc(C)c(C(=O)/C=C/c2ccc(Cl)c(Cl)c2)s1
TGI (NCI-H522 lung): > 100 µM
TGI (HOP-62 NSCLC): > 100 µM
TGI (LOX IMVI melanoma): > 100 µM
TGI (A549 NSCLC): > 100 µM
TGI (UACC-257 melanoma): > 100 µM
TGI (U251 CNS): > 100 µM
TGI (NCI-H460 lung): > 100 µM

C/C=C\C(CC(=O)OC)CC(=O)N(CCC1CN(S(=O)(=O)C(F)(F)F)c2ccccc21)Cc1ccc(OC)cc1OC (stereo not drawn)
TGI (NCI-H522 lung): > 100 µM
TGI (HOP-62 NSCLC): > 100 µM
TGI (LOX IMVI melanoma): > 100 µM
TGI (A549 NSCLC): > 100 µM
TGI (UACC-257 melanoma): > 100 µM
TGI (NCI/ADR-RES ovarian): > 100 µM
TGI (PC-3 prostate): > 100 µM
TGI (NCI-H226 lung): > 100 µM
TGI (U251 CNS): > 100 µM
TGI (NCI-H460 lung): > 100 µM

C=CCCCC1(C)CCNC1=S (stereo not drawn)
TGI (NCI-H522 lung): > 100 µM
TGI (HOP-62 NSCLC): > 100 µM
TGI (A549 NSCLC): > 100 µM
TGI (UACC-257 melanoma): > 100 µM
TGI (PC-3 prostate): > 100 µM
TGI (U251 CNS): > 100 µM
TGI (NCI-H460 lung): > 100 µM

O=c1[nH]nc(Cc2ccccc2)n1/N=C/c1ccc([N+](=O)[O-])cc1
TGI (NCI-H522 lung): > 100 µM
TGI (HOP-62 NSCLC): > 100 µM
TGI (LOX IMVI melanoma): > 100 µM
TGI (A549 NSCLC): > 100 µM
TGI (UACC-257 melanoma): > 100 µM
TGI (NCI/ADR-RES ovarian): > 100 µM
TGI (PC-3 prostate): > 100 µM
TGI (NCI-H226 lung): > 100 µM
TGI (U251 CNS): > 100 µM
TGI (NCI-H460 lung): > 100 µM

NC(N)=NS(=O)(=O)c1ccc(NC(=O)c2cccc3c(N)c4ccccc4nc23)cc1
TGI (NCI-H522 lung): > 100 µM
TGI (HOP-62 NSCLC): > 100 µM
TGI (LOX IMVI melanoma): > 100 µM
TGI (A549 NSCLC): > 100 µM
TGI (UACC-257 melanoma): > 100 µM
TGI (NCI-H226 lung): > 100 µM
TGI (U251 CNS): > 100 µM
TGI (NCI-H460 lung): > 100 µM

COc1cc(C2c3cc4c(cc3OC(NCCO)C2C)OCO4)cc(OC)c1O (stereo not drawn)
TGI (A549 NSCLC): > 100 µM
TGI (PC-3 prostate): > 100 µM
TGI (NCI-H226 lung): > 100 µM
TGI (U251 CNS): 87.8 µM

O=C(Nc1cccc(C(=O)NCCCO)c1)/C(=C/c1ccccc1)NC(=O)c1ccccc1
TGI (NCI-H522 lung): > 100 µM
TGI (HOP-62 NSCLC): > 100 µM
TGI (LOX IMVI melanoma): > 100 µM
TGI (A549 NSCLC): > 100 µM
TGI (UACC-257 melanoma): > 100 µM
TGI (NCI/ADR-RES ovarian): > 100 µM
TGI (PC-3 prostate): > 100 µM
TGI (NCI-H226 lung): > 100 µM
TGI (U251 CNS): > 100 µM
TGI (NCI-H460 lung): > 100 µM

Cc1cc2c(cc1Cl)SC(NNC1=NCCN1)=NS2(=O)=O
TGI (NCI-H522 lung): > 10 µM
TGI (HOP-62 NSCLC): > 10 µM
TGI (LOX IMVI melanoma): > 10 µM
TGI (A549 NSCLC): > 10 µM
TGI (UACC-257 melanoma): > 10 µM
TGI (NCI/ADR-RES ovarian): > 10 µM
TGI (PC-3 prostate): > 10 µM
TGI (NCI-H226 lung): > 10 µM
TGI (U251 CNS): > 10 µM
TGI (NCI-H460 lung): > 10 µM

NC(CCCCNCc1ccccc1)C(=O)O (stereo not drawn)
TGI (NCI-H522 lung): > 100 µM
TGI (HOP-62 NSCLC): > 100 µM
TGI (LOX IMVI melanoma): > 100 µM
TGI (A549 NSCLC): > 100 µM
TGI (UACC-257 melanoma): > 100 µM
TGI (NCI-H226 lung): > 100 µM
TGI (U251 CNS): > 100 µM
TGI (NCI-H460 lung): > 100 µM

COc1ccc(/C=C/C(=O)c2sc(-c3cccnc3)nc2C)cc1
TGI (NCI-H522 lung): > 100 µM
TGI (HOP-62 NSCLC): > 100 µM
TGI (LOX IMVI melanoma): > 100 µM
TGI (A549 NSCLC): > 100 µM
TGI (UACC-257 melanoma): > 100 µM
TGI (NCI-H226 lung): > 100 µM
TGI (U251 CNS): > 100 µM
TGI (NCI-H460 lung): > 100 µM

From PubChem BioAssay (NCI)
